Laboratory results as given in PubChem BioAssay AID1963445 (Molecular Pharmacology Branch, DTP, NCI, 2024).

Tested on: MCF7 complex spheroid growth, % test/control
Assay: Anticancer human tumor MCF7 cell line growth inhibition [Asc];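 also: spheroids exposed to compounds for 7 days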;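 as to viability, T/C: 100% = DMSO vehicle control wells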
Conditions: for IC50: curve of first compound; for viability, T/C: stronger effect = lower value
In short: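 Spheroid model: tumor line + HUVEC + hMSC. Single agents and combinations; top conc. at/near clinical Cmax (10 microM if undetermined), half-log dilutions. DMSO stocks at 800-fold test concentration.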

`Cn1ncnc1[C@H]1c2n[nH]c(=O)c3cc(F)cc(c23)N[C@@H]1c1ccc(F)cc1` + CNC(C)C(=O)NC1CN(S(=O)(=O)c2cccc(S(=O)(=O)N3CCC4CCC(C(=O)NC(c5ccccc5)c5ccccc5)N4C(=O)C(NC(=O)C(C)NC)C3)c2)CCC2CCC(C(=O)NC(c3ccccc3)c3ccccc3)N2C1=O showed an IC50 (second compound 0.00316 µM) of under 316 pM, an IC50 (second compound 0.01 µM) of under 316 pM and an IC50 (second compound 0.0316 µM) of under 316 pM. The IC50 (second compound 0.1 µM) was under 316 pM, the IC50 (second compound 0.316 µM) was under 316 pM and the IC50 (second compound 1 µM) was under 316 pM. For the same compound, the viability, T/C (second compound 0.00316 µM, first compound 0.000316 µM) was 13.7%, the viability, T/C (second compound 0.00316 µM, first compound 0.001 µM) was 11.2% and the viability, T/C (second compound 0.00316 µM, first compound 0.00316 µM) was 11.4%. The viability, T/C (second compound 0.00316 µM, first compound 0.01 µM) was 13.2%, the viability, T/C (second compound 0.00316 µM, first compound 0.0316 µM) was 12.5% and the viability, T/C (second compound 0.00316 µM, first compound 0.1 µM) was 10.1%. It also gave a viability, T/C (second compound 0.01 µM, first compound 0.000316 µM) of 12.8%, a viability, T/C (second compound 0.01 µM, first compound 0.001 µM) of 12.4% and a viability, T/C (second compound 0.01 µM, first compound 0.00316 µM) of 14.8%. The viability, T/C (second compound 0.01 µM, first compound 0.01 µM) was 12.8%, the viability, T/C (second compound 0.01 µM, first compound 0.0316 µM) was 12.4% and the viability, T/C (second compound 0.01 µM, first compound 0.1 µM) was 12.7%. It also gave a viability, T/C (second compound 0.0316 µM, first compound 0.000316 µM) of 10.1%, a viability, T/C (second compound 0.0316 µM, first compound 0.001 µM) of 10.7% and a viability, T/C (second compound 0.0316 µM, first compound 0.00316 µM) of 12.2%. For the same compound, the viability, T/C (second compound 0.0316 µM, first compound 0.01 µM) was 9.67%, the viability, T/C (second compound 0.0316 µM, first compound 0.0316 µM) was 9.98% and the viability, T/C (second compound 0.0316 µM, first compound 0.1 µM) was 12.2%. The viability, T/C (second compound 0.1 µM, first compound 0.000316 µM) was 11.1%, the viability, T/C (second compound 0.1 µM, first compound 0.001 µM) was 14.1% and the viability, T/C (second compound 0.1 µM, first compound 0.00316 µM) was 11.7%. The viability, T/C (second compound 0.1 µM, first compound 0.01 µM) was 11.5%, the viability, T/C (second compound 0.1 µM, first compound 0.0316 µM) was 10.3% and the viability, T/C (second compound 0.1 µM, first compound 0.1 µM) was 11.4%. It also gave a viability, T/C (second compound 0.316 µM, first compound 0.000316 µM) of 10.9%, a viability, T/C (second compound 0.316 µM, first compound 0.001 µM) of 10.8% and a viability, T/C (second compound 0.316 µM, first compound 0.00316 µM) of 13%. The viability, T/C (second compound 0.316 µM, first compound 0.01 µM) was 11.1%, the viability, T/C (second compound 0.316 µM, first compound 0.0316 µM) was 11.9% and the viability, T/C (second compound 0.316 µM, first compound 0.1 µM) was 12.8%. The viability, T/C (second compound 1 µM, first compound 0.000316 µM) was 14.7%, the viability, T/C (second compound 1 µM, first compound 0.001 µM) was 13.5% and the viability, T/C (second compound 1 µM, first compound 0.00316 µM) was 12.3%. It also gave a viability, T/C (second compound 1 µM, first compound 0.01 µM) of 12.8%, a viability, T/C (second compound 1 µM, first compound 0.0316 µM) of 9.82% and a viability, T/C (second compound 1 µM, first compound 0.1 µM) of 13.9%.
